This data set concerns PTEN-P2/GFP prostate cancer cells. Description: Effect of naphthoquinone analogs on PTEN-P2/GFP cell proliferation (CellTiter96 formazan-based viability assay). The note with it: for % viability: 24 hrs, listed as 2,6-di-tert-butyl-1,4-naphtoquinone; for viability at 1 µM / pIC50 / viability at 2 µM / viability at 3 µM / viability at 4 µM / viability at 5 µM / viability at 7 µM / viability at 10 µM / viability at 25 µM / viability at 50 µM: Mus musculus, 24 h.

The mark [1] stands for this setting: 2 μM, medium with 10% FBS and DHT.
The mark [2] stands for this setting: 3 μM, medium with 10% FBS and DHT.
Setting [3] is: 4 μM, medium with 10% FBS and DHT.
Where [4] appears, read: 5 μM, medium with 10% FBS and DHT.
The mark [5] stands for this setting: 7 μM, medium with 10% FBS and DHT.
The mark [6] stands for this setting: 10 μM, medium with 10% FBS and DHT.
Where [7] appears, read: 25 μM, medium with 10% FBS and DHT.
[8] abbreviates: 50 μM, medium with 10% FBS and DHT.
Setting [9] is: 1 μM, medium with 10% FBS and DHT.

pIC50: −log10 of the molar value.

Description: Cell culture: PTEN-P2/GFP are cells that stably express histone H2B-GFP fusion protein.
Cells are grown in DMEM medium containing 10% FBS, 2 mM L-glutamine, 100 U/ml penicillin/100 μg/ml streptomycin, insulin-selenium-transferrin (5 μg/ml insulin), and DHT 10^−8 M final. Androgen withdrawal is achieved by keeping the cells in phenol red-free DMEM medium containing 10% charcoal-treated FBS and the same supplements as in the normal medium except for DHT. Cells are maintained in a humidified incubator at 37° C. and 5% CO2. G418 (100 μg/ml) is added to maintain stable expression of H2B-GFP.
PTEN-P2/GFP prostate cancer cells were plated at a density of 8000 cells/well in 96-well plates (triplicates) in growing medium containing 10% Fetal Bovine Serum and DHT. The next day, increasing concentrations of a naphthoquinone analog (diluted from 10 mM DMSO stock solutions) were incubated for 24 hrs. Cell viability was determined by the formazan-based cytotoxicity assay “CellTiter96Aquaeous nonradioactive proliferation assay” (Promega).

Usually viability stands for a read-out of living cells in per cent, often relative to untreated cells. With `CC(C)(C)C1=CC(=O)c2cc(C(C)(C)C)ccc2C1=O` [2,6-di-tert-butyl-1,4-naphthoquinone], the “% viability” value under setting [1] was 104.5%; the “% viability” value under setting [2] came out at 104.7%; the “% viability” value under setting [3] stood at 103.0%; the “% viability” value under setting [4] amounted to 104.0%; the “% viability” value under setting [5] is recorded as 102.8%; the “% viability” value under setting [6] is recorded as 102.2%. Moreover, the “% viability” value reads like this: under setting [7], 102.9%; under setting [8], 92.9%. Moreover, the viability at 1 µM under setting [9] came to 104%.
Usually pIC50 stands for the IC50 on a negative log10 scale, so that one unit is a factor of ten. Lower therefore signals a large IC50. With `O=C1C(SCCO)=C(SCCO)C(=O)c2ccccc21` [NSC 95397, 2,3-Bis[(2-hydroxyethyl)thio]-1,4-naphthoquinone], the pIC50 is 5.21. In addition, the viability at 1 µM under setting [9] is 104%. For the same molecule, the viability at 2 µM under setting [1] turned out to be 101%. Moreover, under setting [2], the viability at 3 µM turned out to be 86.6%. The viability at 4 µM under setting [3] is 68.4%. In addition, the viability at 5 µM under setting [4] is 53.8%. Under setting [5], the viability at 7 µM is 47.1%. Under setting [6], the viability at 10 µM was 36.3%. Besides, under setting [7], the viability at 25 µM turned out to be 15.1%. The viability at 50 µM under setting [8] came out at 4.8%.
As to `O=C1C=C(O)C(=O)c2ccccc21` [Lawsone], the pIC50 was less than 4.30. Moreover, the viability at 1 µM under setting [9] was found to be 90.1%. Under setting [1], the viability at 2 µM was 85.1%. Moreover, the viability at 3 µM under setting [2] is 81.3%. Moreover, the viability at 4 µM under setting [3] amounted to 82.5%. Besides, the viability at 5 µM under setting [4] is 80.4%. For the same molecule, under setting [5], the viability at 7 µM amounted to 80.3%. The viability at 10 µM under setting [6] came to 83.1%. Under setting [7], the viability at 25 µM was 87%. Also, the viability at 50 µM under setting [8] amounted to 96%.
Turning to `COC1=C(OC)C(=O)c2ccccc2C1=O` [DMNQ, 2,3-Dimethoxy-1,4-naphthoquinone], the pIC50 is 5.13. Moreover, the viability at 1 µM under setting [9] stood at 95%. In addition, the viability at 2 µM under setting [1] was 91%. Besides, the viability at 3 µM under setting [2] worked out at 88.5%. For the same molecule, under setting [3], the viability at 4 µM was 85.9%. In addition, the viability at 5 µM under setting [4] came to 85.3%. Under setting [5], the viability at 7 µM came out at 58.3%. The viability at 10 µM under setting [6] was found to be 2.4%. Under setting [7], the viability at 25 µM is 0.9%. Besides, under setting [8], the viability at 50 µM came out at 0.8%.
Consider `COC1=CC(=O)c2ccccc2C1=O` [2-methoxy-1,4-naphthoquinone], for which the pIC50 was 5.05. Further, under setting [9], the viability at 1 µM worked out at 93.1%. Besides, under setting [1], the viability at 2 µM stood at 88.4%. Further, the viability at 3 µM under setting [2] amounted to 86.9%. Further, under setting [3], the viability at 4 µM is 85%. The viability at 5 µM under setting [4] was found to be 82.5%. Further, the viability at 7 µM under setting [5] is 67.2%. The viability at 10 µM under setting [6] was determined as 43.5%. The viability at 25 µM under setting [7] was determined as 0.3%.
As to `O=C1C(O)=C(C2=C(O)C(=O)c3ccccc3C2=O)C(=O)c2ccccc21` [Lawsone dimer], the pIC50 is less than 4.30. In addition, under setting [9], the viability at 1 µM is 98.3%. Besides, under setting [1], the viability at 2 µM worked out at 98.6%. In addition, the viability at 3 µM under setting [2] came out at 97.4%. Moreover, the viability at 4 µM under setting [3] came to 95.1%. For the same molecule, under setting [4], the viability at 5 µM was determined as 96.8%. Moreover, the viability at 7 µM under setting [5] stood at 96.1%. Also, under setting [6], the viability at 10 µM turned out to be 98.6%. The viability at 25 µM under setting [7] was determined as 99.4%. Moreover, the viability at 50 µM under setting [8] is 97.9%.
Consider `O=C1C=CC(=O)c2ccccc21` [1,4-naphthoquinone], for which the pIC50 is 4.62. Also, under setting [9], the viability at 1 µM was 100%. Further, the viability at 2 µM under setting [1] is 97%. Besides, the viability at 3 µM under setting [2] amounted to 93.9%. Besides, under setting [3], the viability at 4 µM was 90.4%. Under setting [4], the viability at 5 µM came out at 90.1%. Besides, the viability at 7 µM under setting [5] was determined as 88.7%. Under setting [6], the viability at 10 µM worked out at 83%. Also, the viability at 25 µM under setting [7] was 47.3%. The viability at 50 µM under setting [8] was found to be 0.1%.
With `O=C1C=CC(=O)c2c(O)cccc21` [Juglone], the pIC50 is 5.28. In addition, the viability at 1 µM under setting [9] was 90.7%. Besides, the viability at 2 µM under setting [1] is 85.1%. Moreover, the viability at 3 µM under setting [2] was 80.6%. Besides, the viability at 4 µM under setting [3] is 80.5%. For the same molecule, the viability at 5 µM under setting [4] was found to be 58.2%. Further, under setting [5], the viability at 7 µM amounted to 2.3%. Moreover, the viability at 10 µM under setting [6] is 1.1%. Moreover, under setting [7], the viability at 25 µM was found to be 2.5%. Moreover, the viability at 50 µM under setting [8] is 5.3%.
On to `CC1=CC(=O)c2ccccc2C1=O` [Menadione, menadione], for which the pIC50 is 4.84. The viability at 1 µM under setting [9] was found to be 95%. Besides, the viability at 2 µM under setting [1] was found to be 93.1%. Further, the viability at 3 µM under setting [2] was determined as 90.2%. The viability at 4 µM under setting [3] is 93.5%. Under setting [4], the viability at 5 µM stood at 89.4%. For the same molecule, the viability at 7 µM under setting [5] amounted to 94%. For the same molecule, under setting [6], the viability at 10 µM turned out to be 77.5%. Moreover, the viability at 25 µM under setting [7] was 2.4%. Also, the viability at 50 µM under setting [8] was 2.9%.
Turning to `O=C1C(Cl)=C(Cl)C(=O)c2ccccc21` [Dichlon], the pIC50 was 4.42, the viability at 1 µM came to 96.5%, the viability at 2 µM stood at 95.6% and the viability at 3 µM was 92.3%. Further, the viability at 4 µM amounted to 92.2%, the viability at 5 µM is 91.8%, the viability at 7 µM worked out at 99.3% and the viability at 10 µM was determined as 87.1%. For the same molecule, the viability at 25 µM turned out to be 89.2% and the viability at 50 µM was found to be 4.9%.
`O=C1C=CC(=O)c2c(O)ccc(O)c21` [Naphthazarin]: the pIC50 was 5.78, the viability at 1 µM amounted to 73.4%, the viability at 2 µM was found to be 36.4% and the viability at 3 µM amounted to 8.9%. In addition, the viability at 4 µM stood at 1.5%, the viability at 5 µM was 1.7%, the viability at 7 µM stood at 2.2% and the viability at 10 µM was found to be 2.4%. The viability at 25 µM was 5.4% and the viability at 50 µM came out at 9.1%.
In turn, `CC(C)=CCC1=C(O)C(=O)c2ccccc2C1=O` [Lapachol] had a pIC50 of less than 4.30. For the same molecule, the viability at 1 µM under setting [9] was 106%. Under setting [1], the viability at 2 µM was 105%. The viability at 3 µM under setting [2] came out at 102%. Moreover, under setting [3], the viability at 4 µM came out at 103%. Moreover, the viability at 5 µM under setting [4] came to 99.8%. Also, the viability at 7 µM under setting [5] is 99.7%. Also, the viability at 10 µM under setting [6] amounted to 99.6%. Moreover, the viability at 25 µM under setting [7] amounted to 96.2%. Also, the viability at 50 µM under setting [8] was determined as 86.1%.

Source of the values: US10245240B2, “Treatment of prostate carcinoma” (Pellficure Pharmaceuticals, Inc., priority 2010, dated 2019).
